In patent US20160244436A1, “NOVEL FUNCTIONALIZED 5-(PHENOXYMETHYL)-1,3-DIOXANE ANALOGS EXHIBITING CYTOCHROME P450 INHIBITION AND THEIR METHOD OF USE” (CORTENDO AB (PUBL), priority 2013, published 2016):

How the values were obtained:
[1] = system: Bile Acid (Cyp7A surrogate); assay: Bile acid secretion / synthesis inhibition (Cyp7A surrogate); format: cell-based
[2] = target: T1, Cyp19 (Homo sapiens, UniProt P11511); assay: Cyp19 off-target counter screen; format: biochemical; conditions: off-target enzyme
T1 sequence (P11511 1-503): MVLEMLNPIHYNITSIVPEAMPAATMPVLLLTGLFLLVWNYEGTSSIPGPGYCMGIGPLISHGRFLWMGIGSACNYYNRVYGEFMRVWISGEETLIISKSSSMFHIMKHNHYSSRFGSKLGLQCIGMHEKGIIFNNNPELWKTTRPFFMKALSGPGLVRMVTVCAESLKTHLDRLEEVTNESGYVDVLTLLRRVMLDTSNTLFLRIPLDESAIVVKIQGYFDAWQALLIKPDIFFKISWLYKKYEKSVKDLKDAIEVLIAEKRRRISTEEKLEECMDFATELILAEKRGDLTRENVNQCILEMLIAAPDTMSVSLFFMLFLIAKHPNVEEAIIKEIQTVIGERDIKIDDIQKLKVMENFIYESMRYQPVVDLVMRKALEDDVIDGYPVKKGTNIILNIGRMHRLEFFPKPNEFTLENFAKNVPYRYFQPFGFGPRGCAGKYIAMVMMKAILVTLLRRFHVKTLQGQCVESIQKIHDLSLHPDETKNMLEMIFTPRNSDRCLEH

[3] = target: T2, recombinant CYP-11 (Homo sapiens, UniProt P15538); assay: Cyp11 assay: AD293 cells over-expressing recombinant CYP-11, cortisol formation from 11-deoxycortisol by LC/MS; format: cell-based
T2 construct: expressed in transfected cells; host or cells: AD293
T2 sequence (P15538 25-503): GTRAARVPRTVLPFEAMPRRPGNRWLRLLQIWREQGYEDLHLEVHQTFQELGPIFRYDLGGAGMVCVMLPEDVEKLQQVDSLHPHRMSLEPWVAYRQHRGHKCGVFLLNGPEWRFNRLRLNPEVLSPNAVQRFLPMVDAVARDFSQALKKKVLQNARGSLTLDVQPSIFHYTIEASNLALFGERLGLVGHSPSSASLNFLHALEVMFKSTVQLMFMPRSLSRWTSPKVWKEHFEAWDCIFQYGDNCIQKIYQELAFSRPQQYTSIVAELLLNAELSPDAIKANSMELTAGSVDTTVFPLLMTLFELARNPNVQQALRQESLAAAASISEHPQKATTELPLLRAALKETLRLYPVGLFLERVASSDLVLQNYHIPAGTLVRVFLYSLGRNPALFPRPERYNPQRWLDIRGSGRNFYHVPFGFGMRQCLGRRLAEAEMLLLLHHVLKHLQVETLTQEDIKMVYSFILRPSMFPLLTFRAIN
Experimental: Cyp11 assay protocol: AD293 cells that stably over-express recombinant CYP-11 were seeded in 96 well plates coated with poly D-lysine (15,000 cell per well) and incubated at 37° C. for 24 hours in Dulbecco's Modified Eagle Medium (DMEM) with Fetal Bovine Serum (FBS) that is stripped of hormones by charcoal treatment. The media is then removed, the cells are washed once with Phosphate buffer saline solution, and 50 μL Dulbecco's Modified Eagle Medium (DMEM) with Fetal Bovine Serum (FBS) that is stripped of hormones by charcoal treatment is added. Compounds of the disclosure are then added to the wells in eight concentration spanning 10 μM to 4.5 nM, and the plates are incubated for an additional 60 minutes at 37° C. 11-deoxycortisol is then added (2.0 μM) and the plates are incubated for an additional 12 hours at 37° C. After incubation, 50 uL of the supernatant (medium) is transferred into a fresh plate and 150 uL of an acetonitrile solution containing 200 ng/ml of Telmisartan is added. The sample is mixed and then placed in a centrifuge at 2000 rpm for 5 minutes. 100 uL of the supernatant is transferred into a fresh 96 well deep well plate, 100 uL of 1:1 methanol:water was added, the solution was mixed and then analyzed by LC/MS for the presence of cortisol using an Agilent 1200 RRLC/ABSCIEX API4000 LC-MS or Shimadzu Prominance/ABSCIEX API4000 LC-MS to determine IC5os of the compounds of the disclosure.

[4] = target: T3, recombinant CYP-21 (Homo sapiens, UniProt P08686); assay: Cyp21 assay: AD293 cells over-expressing recombinant CYP-21, 11-deoxycortisol formation from 17α-OH Progesterone by LC/MS; format: cell-based
T3 construct: expressed in transfected cells; host or cells: AD293
T3 sequence (P08686 1-495): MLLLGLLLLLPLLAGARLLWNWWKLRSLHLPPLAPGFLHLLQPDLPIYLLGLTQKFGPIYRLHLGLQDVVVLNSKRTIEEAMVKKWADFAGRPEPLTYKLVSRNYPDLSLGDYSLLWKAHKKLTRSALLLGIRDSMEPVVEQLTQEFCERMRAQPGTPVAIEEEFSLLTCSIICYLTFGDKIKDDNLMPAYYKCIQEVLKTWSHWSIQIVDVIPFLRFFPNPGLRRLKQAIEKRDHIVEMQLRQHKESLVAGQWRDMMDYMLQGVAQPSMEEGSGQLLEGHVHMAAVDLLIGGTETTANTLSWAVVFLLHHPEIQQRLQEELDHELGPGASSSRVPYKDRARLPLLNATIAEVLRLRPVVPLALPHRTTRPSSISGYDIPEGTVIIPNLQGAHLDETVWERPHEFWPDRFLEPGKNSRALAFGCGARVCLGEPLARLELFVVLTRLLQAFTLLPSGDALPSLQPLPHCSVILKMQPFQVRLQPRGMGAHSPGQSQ
Experimental: Cyp21 assay protocol: AD293 cells that stably over-express recombinant CYP-21 were seeded in 96 well plates coated with poly D-lysine (10,000 cell per well) and incubated at 37° C. for 24 hours in Dulbecco's Modified Eagle Medium (DMEM) with Fetal Bovine Serum (FBS) that is stripped of hormones by charcoal treatment. The media is then removed, the cells are washed once with Phosphate buffer saline solution, and 50 μL Dulbecco's Modified Eagle Medium (DMEM) with Fetal Bovine Serum (FBS) that is stripped of hormones by charcoal treatment is added. Compounds of the disclosure are then added to the wells in eight concentration spanning 10 μM to 4.5 nM, and the plates are incubated for an additional 60 minutes at 37° C. 17α-OH Progesterone is then added (1.0 μM) and the plates are incubated for an additional 45 minutes at 37° C. After incubation, 50 uL of the supernatant (medium) is transferred into a fresh plate and 150 uL of an acetonitrile solution containing 200 ng/ml of Telmisartan is added. The sample is mixed and then placed in a centrifuge at 2000 rpm for 5 minutes. 100 uL of the supernatant is transferred into a fresh 96 well deep well plate, 100 uL of 1:1 methanol:water was added, the solution was mixed and then analyzed by LC/MS for the presence of 11-deoxycortisol using an Agilent 1200 RRLC/ABSCIEX API4000 LC-MS or Shimadzu Prominance/ABSCIEX API4000 LC-MS to determine IC5os of the compounds of the disclosure.

Structure (SMILES): CC(=O)N1CCN(c2ccc(CO[C@H]3CO[C@](Cn4ccnc4)(c4ccc(Cl)cc4Cl)OC3)cc2)CC1 [drawing 112]
- IC50 [1]: 880 nM
- IC50 [2]: 350 nM
- IC50 [3]: 12 nM
- IC50 [4]: 208 nM
